Consider 1 compound from patent US20230094404A1, “METHOD FOR PREPARATION OF HETEROCYCLICAMINE DERIVATIVES” (Daewoong Pharmaceutical Co., Ltd., priority 2020, published 2023).

Molecules are shown by their SMILES.

In assay [1] the target is T1, BTK (Homo sapiens, UniProt Q06187).
T1 construct: purchased Promega Corporation
Description: ADP-Glo BTK Kinase enzyme system inhibitory activity. In kind it is biochemical. The settings on record: ADP-Glo kit (Promega), ATP 10 uM, duplicate; read-out: inhibitory activity against BTK (BTK IC50). How it is done:
(§1) Inhibitory activities against BTK and ITK were measured for the compound represented by Chemical Formula 1 prepared in the above Examples as follows.
The inhibitory activities against BTK were evaluated using ‘ADP-GIo™+BTK Kinase enzyme system’ kit (Promega Corporation). In a white 96-well plate, 10 ? of BTK enzyme prepared so as to have a final concentration of 10 ng/ ? was mixed with 5 ? of compounds having a final concentration of 1 uM in the case of evaluating a single concentration of compound and a concentration of 1000, 200, 40, 8, 1.6 and 0.32 nM in the case of IC50 evaluation, and then reacted at room temperature for 15 minutes. 5 ? of substrate and 5 ? of ATP prepared so as to have a final concentration of 10 uM were added to the plate on which reactions were completed, and then allowed to react at 30° C. for 1 hour. All wells of the plate on which reactions were completed were treated with 25 ? of ADP-Glo™ reagent and allowed to react at 30° C. for 40 minutes. […] For the plate on which all reactions were completed, luminescence was measured and the results were calculated. Evaluation was carried out in duplicate, and negative control and positive control were calculated depending on whether or not the enzyme was added without treatment of the compound. The IC50 was calculated based on the calculated values.

Assay [2] has as its target T2, ITK (Homo sapiens, UniProt Q08881).
T2 construct: purchased Promega Corporation
T2 sequence (Q08881 1-620): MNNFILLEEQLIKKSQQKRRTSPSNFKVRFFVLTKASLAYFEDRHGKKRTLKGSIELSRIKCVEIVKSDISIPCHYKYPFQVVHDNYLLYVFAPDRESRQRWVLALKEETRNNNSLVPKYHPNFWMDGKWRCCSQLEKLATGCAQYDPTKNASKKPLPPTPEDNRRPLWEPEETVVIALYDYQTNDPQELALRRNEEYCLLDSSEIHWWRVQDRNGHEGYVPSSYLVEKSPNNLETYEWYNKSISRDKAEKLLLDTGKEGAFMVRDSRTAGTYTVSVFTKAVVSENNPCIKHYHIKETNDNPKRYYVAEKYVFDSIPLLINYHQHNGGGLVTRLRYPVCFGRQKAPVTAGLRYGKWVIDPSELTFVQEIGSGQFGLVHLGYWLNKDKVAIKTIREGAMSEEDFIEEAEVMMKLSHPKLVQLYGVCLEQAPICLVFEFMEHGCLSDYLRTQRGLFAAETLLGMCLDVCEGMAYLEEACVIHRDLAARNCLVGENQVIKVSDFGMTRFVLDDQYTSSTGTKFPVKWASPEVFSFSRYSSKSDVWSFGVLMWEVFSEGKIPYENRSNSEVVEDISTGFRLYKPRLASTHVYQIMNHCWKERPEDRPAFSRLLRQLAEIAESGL
Description: ADP-Glo ITK Kinase enzyme system inhibitory activity. Particulars: ADP-Glo kit (Promega), ATP 25 uM, duplicate; read-out: inhibitory activity against ITK (ITK IC50). In kind it is biochemical. The method, then:
as §1
In addition, the inhibitory activity against ITK was evaluated using ‘ADP-GIo™+ITK Kinase enzyme system’ kit (Promega Corporation). In a white 96-well plate, 10 ? of ITK enzyme prepared so as to have a final concentration of 4 ng/ ? was mixed with 5 ? of compounds having a final concentration of 1 uM in the case of evaluating a single concentration of compound and a concentration of 1000, 200, 40, 8, 1.6 and 0.32 nM in the case of IC50 evaluation, and then reacted at room temperature for 15 minutes. To the plate on which reactions were completed, 5 ul of substrate and 5 ? of ATP prepared so as to have a final concentration of 25 uM were added and then allowed to react at 30° C. for 1 hour. All wells of the plate on which reactions were completed were treated with 25 ? of ADP-Glo™ reagent and then allowed to react at 30° C. for 40 minutes. […] For the plate on which all reactions were completed, luminescence was measured and the results were calculated. Evaluation was carried out in duplicate, and negative control and positive control were calculated depending on whether or not the enzyme was added without treatment of the compound. The IC50 was calculated based on the calculated values.

T1 sequence (Q06187 whole entry): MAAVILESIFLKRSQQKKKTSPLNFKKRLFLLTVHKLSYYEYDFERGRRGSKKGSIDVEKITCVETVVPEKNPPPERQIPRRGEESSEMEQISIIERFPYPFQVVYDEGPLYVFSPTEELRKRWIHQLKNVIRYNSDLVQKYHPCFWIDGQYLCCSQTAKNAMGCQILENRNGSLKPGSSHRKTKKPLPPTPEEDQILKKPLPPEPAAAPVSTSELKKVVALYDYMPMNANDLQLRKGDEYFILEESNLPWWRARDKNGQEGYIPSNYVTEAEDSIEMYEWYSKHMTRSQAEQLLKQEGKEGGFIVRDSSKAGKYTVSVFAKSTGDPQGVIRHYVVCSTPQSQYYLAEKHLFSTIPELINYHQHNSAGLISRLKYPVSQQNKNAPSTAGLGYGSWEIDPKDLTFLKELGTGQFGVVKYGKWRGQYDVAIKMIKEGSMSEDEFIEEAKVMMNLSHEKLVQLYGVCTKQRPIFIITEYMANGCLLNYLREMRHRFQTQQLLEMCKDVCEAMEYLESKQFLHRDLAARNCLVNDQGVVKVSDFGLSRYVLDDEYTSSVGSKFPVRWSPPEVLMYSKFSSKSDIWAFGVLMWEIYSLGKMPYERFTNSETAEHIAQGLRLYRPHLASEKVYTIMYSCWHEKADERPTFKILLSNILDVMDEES

Consider `C=CC(=O)N1CCC[C@H](Nc2cc(CN3CCOCC3)cc(Nc3ncc(C)s3)n2)C1` [Chemical Formula 1, (S)-1-(3-((6-((5-methylthiazol-2-yl)amino)-4-(morpholinomethyl)pyridin-2-yl)amino)piperidin-1-yl)prop-2-en-1-one], for which the results for the IC50 in assay [1] and in assay [2] were 0.4 to 1.4 nM and 1 to 1.7 nM, respectively.
